Results: patent US20220362401A1, “PARTICLES, METHOD FOR PRODUCING PARTICLES, DRUG, METHOD FOR PRODUCING DRUG, AND ANTI-CANCER AGENT” (THE UNIVERSITY OF KITAKYUSHU, priority 2019, published 2022)

Tested on: mouse colorectal cancer cell CT26
Experiment: Anti-tumor effect in tumor-bearing mice, transition of tumor volume
Format: in vivo, mice (BALB/c)
Details: i.v. injection, α-mangostin 10 mg/kg, nanoparticles of average particle size 20 nm, FIG. 9
Method: The anti-tumor effect of the particles of the present invention containing α-mangostin was examined using mice (BALB/c, 7 weeks old, male) that bore the mouse colorectal cancer cell CT26. It was confirmed that the size of the tumor that the mice bore reached 100 mm^3 (7 days after), and a sample was intravenously administered (i. v. injection). The doses of α-mangostin at this time were standardized to 10 mg/kg. The transition of the tumor volume was observed after the administration.
Nanoparticles: average particle size: 20 nm (produced under the conditions of X (TX100): 0.15 mM and Y (ECH): 2.1 mL of Production Example 5) α-mangostin: Tokyo Chemical Industry Co., Ltd. Buffer solution: phosphate buffer (pH 7.5) nanoparticles containing no α-mangostin: only the nanoparticles (50 mg/mL) α-mangostin solution: α-mangostin solution (1.0 mM) containing 0.4 vol % DMSO, 2 vol % ethanol, and 2 vol TWEEN 80 (surfactant) nanoparticles containing α-mangostin: solution in which α-mangostin was contained in the nanoparticles (nanoparticle concentration: 50 mg/mL, α-mangostin concentration: 1.0 mM) Experimental data (animal experiment using mice)

COc1c(O)cc2oc3cc(O)c(CC=C(C)C)c(O)c3c(=O)c2c1CC=C(C)C [MGS, α-mangostin]
effect of suppressing the cancer growth (tumor volume): not observed
